From US20240132522A1, “HETEROCYCLIC COMPOUNDS AND METHODS OF USE THEREOF” (1cBio, Inc., priority 2022, published 2024)
Structures can show the parent of a compound that is named as a salt.

Tests used:
[1] = tested on: DLD-1 wild-type colorectal adenocarcinoma cells; experiment: Cell viability assay (Cell Titer-Glo), DLD-1 wild-type; type: cell-based; conditions: Homo sapiens, DLD-1, 168 h, 7 days, 50 cells/well
Description: (§1) In some embodiments, the biological assay measures the effects that compounds of the present disclosure may have on the viability of cells, e.g., the viability of cancer cells. In some embodiments, DLD-1 wild-type and DLD-1 BRCA2(−/−) colorectal adenocarcinoma cells, an isogenic pair of cell lines differing in the presence and absence, respectively, of both BRCA2 alleles, are used to measure the effect of the disclosed compounds on the viability of cancer cells.
(§2) In some embodiments, the cells are harvested during the logarithmic growth period, counted, and seeded at a specified count in the wells of a 96- or 384-well cell culture plate. In some embodiments, after seeding, the cells are incubated, e.g., at 37° C., 5% CO2 overnight. In some embodiments, the cells are treated with compounds, e.g., with serially diluted test compounds at 8-11 concentrations within a desired concentration range, e.g., from 1 nM-10 μM, for the generation of dose-response curves. In some embodiments, the plate is further incubated, e.g., for another 3-7 days in a humidified incubator at 37° C. and 5% CO2. In some embodiments, cell viability is assessed by luminescence measurement after addition of Cell Titer-Glo reagent (Promega, Madison, Wis.) according to the manufacturer's instructions. In some embodiments, cell viability IC50 values are calculated using XLFit, equation 201: y=A+((B−A)/(1+((x/C)^D))), where A=bottom, B=top, C=IC50, and D=slope. In some embodiments, the effects of the test compounds on the viability of other cell lines such as MDA-MB-436, MDA-MB-231, SUM149PT, HCC1395, and UWB1.289 are determined in an analogous method.
(§3) Compounds of the present disclosure were tested for their effects on the viability of cancer cells. DLD-1 wild-type and DLD-1 BRCA2(−/−) colorectal adenocarcinoma cells, an isogenic pair of cell lines differing in the presence and absence, respectively, of both BRCA2 alleles, were used. The cells were harvested during the logarithmic growth period, counted, and seeded at 50 cells/well for DLD-1 wild-type and 200 cells/well for DLD-1 BRCA2(−/−) in a 384-well cell culture plate. After seeding, cells were incubated at 37° C., 5% CO2 overnight. Cells were treated with serially diluted test compounds at 10 concentrations from 1.5 nM-30 μM) for generation of dose response curves. The plate was further incubated for another 7 days in a humidified incubator at 37° C. and 5% CO2. Cell viability was assessed by luminescence measurement after addition of Cell Titer-Glo reagent (Promega, Madison, Wis.) according to the manufacturer's instructions. Cell viability IC50 values were calculated using XLFit, equation 201: y=A+((B−A)/(1+((x/C)^D))), where A=bottom, B=top, C=IC50, and D=slope. IC50 values are shown in Table B and are presented in ranges, in which “+++”<300 nM, 300 nM≤“++”<3000 nM, and “+”≥3000 nM. Effects of the test compounds on the viability of other cell lines such as MDA-MB-436, MDA-MB-231, SUM149PT, HCC1395, and UWB1.289 are determined in an analogous method.

[2] = tested on: DLD-1 BRCA2(−/−) colorectal adenocarcinoma cells; experiment: Cell viability assay (Cell Titer-Glo), DLD-1 BRCA2(−/−); type: cell-based; conditions: Homo sapiens, DLD-1, 168 h, 7 days, 200 cells/well
Description: as §1, §2, §3

recombinant human PARP1 = recombinant human PARP1 (Homo sapiens, UniProt P09874); experiment: PARP1 fluorescence polarization binding assay; conditions: binding IC50, GST-tagged PARP1 20 nM, PARPi-FL probe 3 nM, 4 h at RT
Description: In some embodiments, the biological assay is described in the Examples herein. In some embodiments, the biological assay measures PARP-1 binding by way of fluorescence polarization measurements. In some embodiments, binding of a test compound to recombinant human PARP-1 reduces the amount of binding of a fluorescent probe, and consequently reduces the detected level of fluorescence polarization. In some test compound stock solutions are prepared in a solvent, e.g., DMSO, and are serially diluted into a range of concentrations, e.g., 15 concentrations, 14 concentrations, 13 concentrations, 12 concentrations, 11 concentrations, 10 concentrations, 9 concentrations, 8 concentrations, 7 concentrations, 6 concentrations, or 5 concentrations, by a dilution factor, e.g., a 10-fold dilution factor, a 9-fold dilution factor, an 8-fold dilution factor, a 7-fold dilution factor, a 6-fold dilution factor, a 5-fold dilution factor, a 4-fold dilution factor, a 3-fold dilution factor, or a 2-fold dilution factor. In some embodiments, the serial dilutions, e.g., 100 nL of serial dilution, 90 nL of serial dilution, 80 nL of serial dilution, 70 nL of serial dilution, 60 nL of serial dilution, 50 nL of serial dilution, 30 nL of serial dilution, 20 nL of serial dilution, or 10 nL of serial dilution, are added to a multi-welled plate, e.g., a 1536-well plate, a 384-well plate, or a 96-well plate. In some embodiments, PARP-1, e.g., GST-tagged PARP-1, is diluted in assay buffer, e.g., 50 μL of assay buffer, 40 μL of assay buffer, e.g., 30 μL of assay buffer, 20 μL of assay buffer, 10 μL of assay buffer, or 5 μL of assay buffer, and is added to the plate. In some embodiments, the plate is centrifuged, e.g., at 1000 rpm for 1 min, and incubated, e.g., incubated for 30 minutes at room temperature (RT). In some embodiments, a fluorescent probe, e.g., 10 μL of 6 nM PARPi-FL (TOCRIS, Cat #6461), is diluted in an assay buffer and is added to the plate. In some embodiments, the final concentrations of PARP-1 and fluorescent probe are 20 nM and 3 nM, respectively, in a total volume of 20 μL. In some embodiments, the plate is centrifuged, e.g., at 1000 rpm for 1 minute, and the assay plate is incubated, e.g., for 4 h at RT. In some embodiments, the samples in each well are read using a plate reader, e.g., an Envision instrument using excitation=480 nm, and emission wavelength=FITC FP-P pol 535 nm & FITC FP-S pol 535 nm). In some embodiments, percent inhibition is calculated from mP values using Inhibition (%)=[1−(mPc−mPL)/(mPH−mPL)]×100%, where mPc, mPL, and mPH are the mP values of test compound, Low controls, and High controls, respectively. In some embodiments, binding IC50 values are calculated using XLFit (equation 201: y=A+((B−A)/(1+((x/C)^D))), where A=bottom, B=top, C=IC50, and D=slope) with a floating top and bottom for curves.
Compounds of the present disclosure were tested in a PARP1 fluorescence polarization binding assay at Pharmaron (Beijing, P.R. China). In this biochemical assay, binding of test compound to recombinant human PARP1 reduces the amount of binding of a fluorescent probe, and consequently reduces the detected level of fluorescence polarization. Test compound stock solutions were prepared in DMSO and then serially diluted into 10 concentrations by 3-fold dilution in a 384-well plate using a TECAN EVO200. 60 nL of each dilution was transferred to the plate using an Echo550 (Labcyte), and then 10 μL 40 nM GST-tagged PARP1 (BPS Bioscience, Cat #80501), diluted in assay buffer (50 mM Tris pH 8.0, 0.001% Triton X-100, 10 mM MgCl2, 150 mM NaCl), was added to the plate. After a centrifugation at 1000 rpm for 1 min, the assay plate was incubated for 30 min at RT. 10 μL 6 nM PARPi-FL (TOCRIS, Cat #6461), diluted using assay buffer, was then added to the plate. The final concentrations of PARP1 and PARPi-FL were 20 nM and 3 nM, respectively, in a total volume of 20 μL. […]

recombinant human PARP1, sequence (P09874 whole entry): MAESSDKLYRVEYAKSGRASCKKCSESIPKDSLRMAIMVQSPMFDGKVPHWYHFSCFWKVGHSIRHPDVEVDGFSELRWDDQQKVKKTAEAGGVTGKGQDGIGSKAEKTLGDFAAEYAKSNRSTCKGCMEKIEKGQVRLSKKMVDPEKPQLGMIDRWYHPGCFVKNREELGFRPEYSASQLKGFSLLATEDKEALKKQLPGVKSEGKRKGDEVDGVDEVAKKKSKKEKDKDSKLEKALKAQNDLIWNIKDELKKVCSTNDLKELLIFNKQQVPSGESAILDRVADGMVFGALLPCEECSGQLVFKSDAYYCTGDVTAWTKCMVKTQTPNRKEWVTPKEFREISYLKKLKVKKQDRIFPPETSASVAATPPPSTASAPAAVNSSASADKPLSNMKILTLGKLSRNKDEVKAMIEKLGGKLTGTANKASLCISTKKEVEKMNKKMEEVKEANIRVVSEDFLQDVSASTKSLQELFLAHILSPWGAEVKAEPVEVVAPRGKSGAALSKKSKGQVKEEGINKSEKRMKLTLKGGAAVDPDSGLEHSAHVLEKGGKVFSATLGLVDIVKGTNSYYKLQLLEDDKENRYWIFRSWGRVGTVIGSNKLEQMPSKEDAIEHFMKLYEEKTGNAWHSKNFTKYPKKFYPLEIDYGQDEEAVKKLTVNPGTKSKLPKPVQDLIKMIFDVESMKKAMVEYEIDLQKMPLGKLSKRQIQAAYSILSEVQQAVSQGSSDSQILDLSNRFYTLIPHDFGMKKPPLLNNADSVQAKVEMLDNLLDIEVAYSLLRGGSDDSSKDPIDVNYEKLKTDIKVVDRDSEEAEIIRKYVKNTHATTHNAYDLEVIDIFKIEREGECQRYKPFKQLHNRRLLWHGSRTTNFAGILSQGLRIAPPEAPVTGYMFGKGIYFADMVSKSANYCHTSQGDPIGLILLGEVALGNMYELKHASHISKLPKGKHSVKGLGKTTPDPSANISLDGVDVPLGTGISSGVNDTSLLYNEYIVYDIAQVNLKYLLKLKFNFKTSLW

Row | Compound | IC50 [1] | IC50 [2] | IC50 (recombinant human PARP1)
1 | CCc1cc2ncc(CN3C4CCC3CN(c3ccc(C(=O)NC)nc3)C4)cc2[nH]c1=O [Compound No. 3, 5-(8-((7-ethyl-6-oxo-5,6-dihydro-1,5-naphthyridin-3-yl)methyl)-3,8-diazabicyclo[3.2.1]octan-3-yl)-N-methylpicolinamide] | ≥ 3000 nM | 300 to 3000 nM | < 100 nM
2 | CCc1cc2ncc(CN3CC4CCC(C3)N4c3ccc(C(=O)NC)nc3)cc2[nH]c1=O [Compound No. 8, 5-(3-((7-ethyl-6-oxo-5,6-dihydro-1,5-naphthyridin-3-yl)methyl)-3,8-diazabicyclo[3.2.1]octan-8-yl)-N-methylpicolinamide] | ≥ 3000 nM | ≥ 3000 nM | 100 to 3000 nM
3 | CCc1cc2ncc(CN3CC4(C3)CN(c3ccc(C(=O)NC)nc3C)C4)cc2[nH]c1=O [Compound No. 139, 5-(6-((7-ethyl-6-oxo-5,6-dihydro-1,5-naphthyridin-3-yl)methyl)-2,6-diazaspiro[3.3]heptan-2-yl)-N,6-dimethylpicolinamide formate] | ≥ 3000 nM | ≥ 3000 nM | 100 to 3000 nM
4 | CCc1cc2ncc(CN3CC4(C3)CN(C(=O)c3ccc(F)cc3F)C4)cc2[nH]c1=O [Compound No. 181, 7-({6-[(2,4-difluorophenyl)carbonyl]-2,6-diazaspiro[3.3]heptan-2-yl}methyl)-3-ethyl-1H-1,5-naphthyridin-2-one formate] | ≥ 3000 nM | ≥ 3000 nM | ≥ 3000 nM
